The target of the experiment is T1, GCase (Homo sapiens, UniProt P04062).
T1 construct: endogenous in cells; host or cells: HeLa cells
T1 sequence (P04062 40-536): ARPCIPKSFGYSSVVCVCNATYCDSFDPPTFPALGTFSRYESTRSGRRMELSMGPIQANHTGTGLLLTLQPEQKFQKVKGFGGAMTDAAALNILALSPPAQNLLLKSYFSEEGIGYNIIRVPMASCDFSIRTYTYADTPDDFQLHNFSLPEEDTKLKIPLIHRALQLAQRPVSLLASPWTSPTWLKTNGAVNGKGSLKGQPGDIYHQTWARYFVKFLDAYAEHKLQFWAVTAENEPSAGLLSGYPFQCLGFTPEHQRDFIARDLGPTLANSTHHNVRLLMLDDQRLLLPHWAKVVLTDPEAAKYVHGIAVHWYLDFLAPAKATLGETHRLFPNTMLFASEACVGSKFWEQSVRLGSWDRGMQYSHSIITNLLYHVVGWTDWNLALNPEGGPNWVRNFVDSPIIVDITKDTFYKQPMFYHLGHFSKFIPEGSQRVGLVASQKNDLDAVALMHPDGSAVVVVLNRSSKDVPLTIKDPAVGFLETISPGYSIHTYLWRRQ
Nature of the experiment: activation of GCase in a live cell PFB assay in HELA cells. It counts as cell-based. On the procedure: Exemplary compounds were evaluated for activation of GCase in a live cell PFB assay in HELA cells (essentially as described in Ysselstein et al., “LRRK2 kinase activity regulates lysosomal glucocerebrosidase in neurons derived from Parkinson's disease patients” Nature Communications (2019) 10:5570). […] EC50 ranges: A: <10 μM; B: >10-50 μM; C: >50-100 μM; D: >100 μM.

The mark [1] stands for this setting: activation of GCase, EC50 ranges.

As usually defined, the EC50 is the concentration that produces a half-maximal response. A higher EC50 goes with a need for much substance.

Take `CCc1nn(C2COC2)c2nc(N3CCC4(CN(c5ccnc(C(F)(F)F)c5)C4)C3)cnc12` [Cmpd 1069]: the EC50 under setting [1] is 10 to 50 µM.
The compound `O=C1N(c2cc(C(F)(F)F)ccn2)CCC12CCN(c1cnc3cnn(CC(F)(F)F)c3n1)CC2` [Compound 142, 8-[1-(2,2,2-trifluoroethyl)-1H-pyrazolo[3,4-b]pyrazin-6-yl]-2-[4-(trifluoromethyl)pyridin-2-yl]-2,8-diazaspiro[4.5]decan-1-one] came in with an EC50 under setting [1] below 10 µM.
Take `FC(F)Cn1ncc2ncc(N3CCC4(CC3)CN(c3cc(C(F)(F)F)ccn3)c3ccccc34)nc21` [Cmpd 259]: the EC50 under setting [1] fell in the range of 10 to 50 µM.
`O=C1N(Cc2cncc(Cl)c2)CCC12CCN(c1cnc3cnn(CC(F)F)c3n1)CC2` [Cmpd 333]: the 50% effective concentration (EC50) under setting [1] is below 10 µM.
Take `Cc1nc(N2CCC3(C2)CN(c2cnc4cnn(CC(F)(F)F)c4n2)C3)cc(C(F)(F)F)n1` [Cmpd 552]: the concentration giving a half-maximal response (EC50) under setting [1] was below 10 µM.
Under setting [1], `CCN1C(=O)N(c2ccc(C(F)(F)F)cc2)C(=O)C12CCN(c1cnc3c(C)nn(CC(F)F)c3n1)CC2` [Cmpd 872] had an EC50 below 10 µM.
As for `FC(F)(F)c1ccnc(N2CCC3(CC2)CCN(c2cncc(-c4nncs4)n2)C3)c1` [Compound 141, 2-[6-(1,3,4-thiadiazol-2-yl)pyrazin-2-yl]-8-[4-(trifluoromethyl)pyridin-2-yl]-2,8-diazaspiro[4.5]decane], under setting [1], the EC50 was 10 to 50 µM.
For the setting “EC50 given as range classes”, `FC(F)Cn1ncc2ncc(NC3CCC4(CCN(c5cc(C(F)(F)F)ccn5)C4)C3)nc21` (centres unmarked) [Cmpd 194] yielded an EC50 below 10 µM.
Compound `FC(F)Cn1ncc2ncc(N3CC4(CCN(c5cccc(C(F)(F)F)n5)CC4)C3)nc21` [Compound 125, 2-[1-(2,2-difluoroethyl)-1H-pyrazolo[3,4-b]pyrazin-6-yl]-7-[6-(trifluoromethyl)pyridin-2-yl]-2,7-diazaspiro[3.5]nonane] registered an EC50 under setting [1] of 10 to 50 µM.
In the case of `O=C1N(Cc2cc(F)cc(F)c2)CCC12CCN(c1cnc3cnn(CC(F)F)c3n1)CC2` [Cmpd 358], the EC50 under setting [1] is below 10 µM.
`Cc1nc(N2CC3(CCN(c4cnc5cnn(C6COC6)c5n4)CC3)C2)cc(C(F)(F)F)n1` [Cmpd 563]: under setting [1], the EC50 was above 100 µM.
For the setting “EC50 given as range classes”, `O=C1N(c2cnc3cnn(CC(F)F)c3n2)CCC12CN(c1ccc(C(F)(F)F)cn1)C2` [Cmpd 1011] came in with an EC50 of 10 to 50 µM.
The compound `Cc1nn(CC(F)F)c2nc(N3CCC4(CC(=O)N(c5ccnc(C(F)(F)F)c5)C4)C3)ncc12` (centres unmarked) [Cmpd 496] gave an EC50 under setting [1] of 10 to 50 µM.
The same measure, in the same setting: the same measure for `O=C1N(c2cc(C(F)(F)F)ccn2)CCC12CCN(c1cncc(-n3cccn3)n1)CC2` [Cmpd 241]: 10 to 50 µM; for `CCOc1ncc(N2CCC3(CCN(c4cnc5cnn(CC(F)F)c5n4)CC3)C2)cn1` [Cmpd 763]: below 10 µM.
Compound `COc1nc(N2CCC3(CN(c4ccnc(C(F)(F)F)c4)C3)C2)nc2c1cnn2CC(F)F` [Cmpd 297] had an EC50 under setting [1] of 10 to 50 µM.
Compound `Cc1nn(CC(F)F)c2nc(N3CCC4(CCN(c5ccnc(C(F)(F)F)c5)C4)CC3)n(C)c(=O)c12` [Cmpd 1104] showed an EC50 under setting [1] of 10 to 50 µM.
Under setting [1], `Cn1c(N2CCC3(CC2)CC(=O)N(c2ccc(C(F)(F)F)nc2)C3)nc2c(cnn2CC(F)F)c1=O` [Cmpd 925] yielded an EC50 of 10 to 50 µM.
As to `Cc1nn(C2COC2)c2nc(N3CCC4(CCN(c5cnc(C(F)(F)F)nc5)C4)C3)cnc12` (centres unmarked) [Cmpd 534], the EC50 under setting [1] was below 10 µM.
Consider `Cc1nc(N2CCC3(CC2)CCN(c2cnc4cnn(CC(F)(F)F)c4n2)C3)cc(C(F)(F)F)n1` [Cmpd 580], for which the EC50 (EC50 given as range classes) fell in the range of 10 to 50 µM.
`Cc1ncc(N2CC3(CCN(c4ncc5cnn(CC(F)(F)F)c5n4)C3)C2)c(C(F)(F)F)n1` [Cmpd 596] registered an EC50 (EC50 given as range classes) below 10 µM.
In the case of `FC(F)Cn1ncc2ncc(N3CC4(CN(c5cc(C(F)(F)F)ccn5)CCO4)C3)nc21` [Compound 171, 2-[1-(2,2-difluoroethyl)-1H-pyrazolo[3,4-b]pyrazin-6-yl]-8-[4-(trifluoromethyl)pyridin-2-yl]-5-oxa-2,8-diazaspiro[3.5]nonane], the EC50 under setting [1] lay in the range of 10 to 50 µM.
`Cc1nc(N2CCC3(CCN(c4ncc5c(C)nn(CC(F)(F)F)c5n4)CC3)C2)cc(C(F)(F)F)n1` [Cmpd 619] gave an EC50 (EC50 given as range classes) of 10 to 50 µM.
Regarding `Cc1nccn1-c1cncc(N2CCC3(CCN(c4ccc(C(F)(F)F)nc4)C3)CC2)n1` [Cmpd 250], the EC50 under setting [1] was in the range of 10 to 50 µM.
Where the note is “EC50 given as range classes”, `Cn1c(N2CC3(CC2=O)CN(c2ccnc(C(F)(F)F)c2)C3)nc2c(cnn2CC(F)F)c1=O` [Cmpd 998] registered an EC50 of 10 to 50 µM.
The compound `FC(F)(F)Cn1ncc2cnc(N3CCC4(CN(c5ccnc(C(F)(F)F)c5)C4)C3)nc21` [Cmpd 424] returned a 50% effective concentration (EC50) (EC50 given as range classes) below 10 µM.
Under setting [1], `O=C1N(Cc2ccnc(C(F)(F)F)c2)CCC12CCN(c1cnc3cnn(CC(F)F)c3n1)CC2` [Cmpd 357] yielded a concentration giving a half-maximal response (EC50) below 10 µM.
The compound `O=S(=O)(CCC(F)(F)F)N1CC2(CCN(c3cnc4cnn(CC(F)F)c4n3)C2)C1` [Cmpd 415] displayed a 50% effective concentration (EC50) (EC50 given as range classes) of 10 to 50 µM.
On to `Cc1nc(N2CCC3(C2)CN(c2cnc4c(C)nn(C5COC5)c4n2)C3)cc(C(F)(F)F)n1` [Cmpd 556], for which, under setting [1], the EC50 lay in the range of 10 to 50 µM.
For the setting “EC50 given as range classes”, `FC(F)Cn1ncc2ncc(N3CCC4(CC3)CN(c3cccc(C(F)(F)F)n3)CCO4)nc21` [Cmpd 208] showed a 50% effective concentration (EC50) of 10 to 50 µM.
As for `CC(C)N1C(=O)N(c2ccc(C(F)(F)F)nc2)C(=O)C12CCN(c1cnc3cnn(C4COC4)c3n1)CC2` [Cmpd 867], the EC50 under setting [1] is above 100 µM.
Consider `CCN1C(=O)N(c2ccc(C(F)(F)F)nc2)C(=O)C12CCN(c1ncc3c(C)nn(C4COC4)c3n1)CC2` [Cmpd 878], for which the EC50 under setting [1] lay within 10 to 50 µM.
Under setting [1], `CCc1nccn1-c1cncc(N2CCC3(CCN(c4ccc(C(F)(F)F)nc4)C3)CC2)n1` [Cmpd 263] returned a half-maximal effective concentration (EC50) below 10 µM.
With `Cc1nn(CC(F)F)c2nc(N3CCC4(CCN(c5cnc(C(F)(F)F)nc5)C4)CC3)cnc12` [Cmpd 829], the EC50 (EC50 given as range classes) was below 10 µM.
`O=C1CC2(CCN(c3cnc4cnn(CC(F)F)c4n3)CC2)CN1c1nccc(C(F)(F)F)n1` [Cmpd 275] yielded an EC50 under setting [1] below 10 µM.
In the case of `CCn1c(=O)n(CC(F)F)c2nc(N3CCC4(CN(c5cc(C(F)(F)F)nc(C)n5)C4)C3)ncc21` [Cmpd 1081], under setting [1], the EC50 is below 10 µM.
Under setting [1], `O=C1CC2(CCN(c3cnc4cnn(CC(F)F)c4n3)CC2)CN1Cc1ccc(C(F)(F)F)nc1` [Cmpd 307] displayed an EC50 below 10 µM.
Under setting [1], `O=C1CC2(CCN(c3ccc(C(F)(F)F)cn3)C2)CN1c1cnc2cnn(CC(F)F)c2n1` (centres unmarked) [Cmpd 508] came in with an EC50 of 10 to 50 µM.
For the compound `FC(F)Cn1ncc2ncc(N3CCC4(CCN(c5ccnc(C(F)(F)F)c5)C4)CC3)nc21` [Compound 154, 8-[1-(2,2-difluoroethyl)-1H-pyrazolo[3,4-b]pyrazin-6-yl]-2-[2-(trifluoromethyl)pyridin-4-yl]-2,8-diazaspiro[4.5]decane], under setting [1], the EC50 is below 10 µM.
Still for that read-out and setting: the same measure for `CCOc1nn(C2COC2)c2nc(N3CCC4(CC3)CC(=O)N(c3ccc(C(F)(F)F)nc3)C4)ncc12` [Cmpd 953]: 10 to 50 µM; for `Cc1cc(N2CC3(CCN(c4ncc5c(C)nn(CC(C)(F)F)c5n4)C3)C2)nc(C(F)(F)F)n1` [Cmpd 1130]: below 10 µM.
In the case of `O=C1CC2(CN(c3ccnc(C(F)(F)F)c3)C2)CN1c1ncc2cnn(CC(F)F)c2n1` [Cmpd 1005], where the note is “EC50 given as range classes”, the EC50 was 10 to 50 µM.
In the case of `COc1nn(CC(F)F)c2nc(N3CCC4(CN(c5cc(C(F)(F)F)nc(C)n5)C4)C3)cnc12` [Cmpd 1095], the EC50 under setting [1] was 10 to 50 µM.
Consider `CC1CN(c2cc(C(F)(F)F)ccn2)CC12CCN(c1cnc3cnn(CC(F)F)c3n1)CC2` (centres unmarked) [Cmpd 748], for which the EC50 under setting [1] was below 10 µM.
As for `FC(F)Cn1ncc2ncc(N3CCC4(CCCN(c5cccc(C(F)(F)F)n5)C4)C3)nc21` (centres unmarked) [Compound 36, 2-[1-(2,2-difluoroethyl)-1H-pyrazolo[3,4-b]pyrazin-6-yl]-7-[6-(trifluoromethyl)pyridin-2-yl]-2,7-diazaspiro[4.5]decane], under setting [1], the concentration for a half-maximal effect (EC50) is 10 to 50 µM.
Where the note is “EC50 given as range classes”, `FC(F)Cn1ncc2ncc(N3CCC4(CCN(c5ccc(C(F)(F)F)nc5)CC4)CC3)nc21` [Cmpd 807] registered an EC50 below 10 µM.
`FC(F)Cn1ncc2ncc(N3CCC4(CC3)CN(c3cccc(C(F)(F)F)n3)C4)nc21` [Compound 77, 7-[1-(2,2-difluoroethyl)-1H-pyrazolo[3,4-b]pyrazin-6-yl]-2-[6-(trifluoromethyl)pyridin-2-yl]-2,7-diazaspiro[3.5]nonane] returned an EC50 under setting [1] below 10 µM.
In the case of `Fc1cc(Cl)cnc1N1CC2(CCN(c3cnc4cnn(CC(F)F)c4n3)C2)C1` [Cmpd 407], the EC50 (EC50 given as range classes) lay within 10 to 50 µM.
For the compound `Cc1nc(N2CCC3(CCN(c4ncc5c(C)nn(C6COC6)c5n4)C3)C2)cc(C(F)(F)F)n1` (centres unmarked) [Cmpd 544], the EC50 under setting [1] lay in the range of 10 to 50 µM.
For `Cc1cc(N2CC3(CCN(c4cnc5cnn([C@H]6CCOC6)c5n4)C3)C2)nc(C(F)(F)F)n1` [Cmpd 1146], under setting [1], the concentration for a half-maximal effect (EC50) lay in the range of 10 to 50 µM.
On the same count and under the same terms, the same measure for `FC(F)(F)c1cc(N2CC3(CCN(c4cnc5cnn([C@H]6CCOC6)c5n4)C3)C2)ccn1` [Cmpd 1092]: above 100 µM; for `O=C1CC2(CCN1c1ccc(C(F)(F)F)cn1)CN(c1cnc3cnn(CC(F)F)c3n1)C2` [Cmpd 912]: 10 to 50 µM; for `CC1(C)C(=O)N(c2cc(C(F)(F)F)ccn2)CC12CCN(c1cnc3cnn(CC(F)F)c3n1)CC2` [Compound 73, 8-(1-(2,2-difluoroethyl)-1H-pyrazolo[3,4-b]pyrazin-6-yl)-4,4-dimethyl-2-(4-(trifluoromethyl)pyridin-2-yl)-2,8-diazaspiro[4.5]decan-3-one]: below 10 µM.

Values taken from patent US20250034170A1, “SMALL MOLECULE MODULATORS OF GLUCOCEREBROSIDASE ACTIVITY AND USES THEREOF” (Vanqua Bio, Inc., priority 2021, published 2025).
